Experimental data reported in patent US20200181709A1, “METHODS OF DETECTION AND TREATMENT OF UROTHELIAL CANCER” (THE JOHNS HOPKINS UNIVERSITY, priority 2015, published 2020).
Entries after “also recorded” stand apart in the source; their conditions may differ.

Tests used:
[1] = test system: CCND2 expression in UCC cell lines; experiment: Q-RT-PCR of CCND2 expression after 5-aza-dc and/or TSA treatment of UCC cell lines; format: cell-based; details: 5 μM 5-aza-dc for 5 days, vs PBS control
Description: (§1) UCC cells were seeded in 75 cm2 culture flasks at a density of […] and incubated at 37° C. in 5% CO2/95% air overnight. Cells were then treated with 5μM of 5-aza-dc (Sigma Chemical, Sigma, USA) for 5 days. […] Additionally, combination treatment with 5-aza-dc and TSA was performed by adding 5μM of 5-aza-dc daily for 5 days and TSA (300 nmol/L; Sigma) was added to the medium for the final 24 hours. […] PBS (phosphate buffered saline) alone was used as a control to exclude non-specific solvent effects on cells. All experiments were run independently twice. RNA was extracted using Qiazol Lysis reagent (Qiagen, Valencia, Calif.) according to the manufacturer's instructions. One microgram of total RNA was used for cDNA conversion using the Quantitect Reverse Transcription Kit (Qiagen, Valencia, Calif.), following manufacturer's protocol. Q-RT-PCR was performed using the SYBR Green chemistry in a 7900HT Real-Time PCR System (Applied Biosystems, Foster City, CA). […] The RT-PCR primer sequences are available in Supplementary Table 2B. […] Quantitative reverse transcriptase PCR was performed to determine whether promoter methylation of CCNA1 and CCND2 inversely correlated with their expression. […]

[2] = test system: CCNA1 expression in UCC cell lines; experiment: Q-RT-PCR of CCNA1 expression after 5-aza-dc and/or TSA treatment of UCC cell lines; format: cell-based; details: SW780 and J82 cell lines; 5 μM 5-aza-dc for 5 days; vs PBS control
Description: as §1

## Nc1ncn([C@H]2C[C@H](O)[C@@H](CO)O2)c(=O)n1 [5-aza-dc, 5-aza-deoxycytidine]
[1]; HT1376 cell line
  CCND2 expression (real-time RT-PCR): overexpression was observed after 5-aza-dc treatment only (not significant)
[1]; UMUC-3, J82 and T24 cell lines
  CCND2 expression (real-time RT-PCR): Reactivation of CCND2 was observed
[2]
  CCNA1 expression (real-time RT-PCR): re-expression of CCNA1; also recorded: Reactivation of CCNA1 was observed
